Our source for the EC50 and IC50 values is the Kinase Knowledgebase extract (Sharma et al. 2016).

Each structure is given as a SMILES string.

The target of test [1] is PIK3CA (human) (UniProt P42336). As to the kind of experiment: Inhibition of A2780 Cell Proliferation.
Test [2] has the same target. The test is described as follows: Inhibition of PIK3CA Kinase Activity.

PIK3CA (human), sequence (P42336 whole entry, looked up): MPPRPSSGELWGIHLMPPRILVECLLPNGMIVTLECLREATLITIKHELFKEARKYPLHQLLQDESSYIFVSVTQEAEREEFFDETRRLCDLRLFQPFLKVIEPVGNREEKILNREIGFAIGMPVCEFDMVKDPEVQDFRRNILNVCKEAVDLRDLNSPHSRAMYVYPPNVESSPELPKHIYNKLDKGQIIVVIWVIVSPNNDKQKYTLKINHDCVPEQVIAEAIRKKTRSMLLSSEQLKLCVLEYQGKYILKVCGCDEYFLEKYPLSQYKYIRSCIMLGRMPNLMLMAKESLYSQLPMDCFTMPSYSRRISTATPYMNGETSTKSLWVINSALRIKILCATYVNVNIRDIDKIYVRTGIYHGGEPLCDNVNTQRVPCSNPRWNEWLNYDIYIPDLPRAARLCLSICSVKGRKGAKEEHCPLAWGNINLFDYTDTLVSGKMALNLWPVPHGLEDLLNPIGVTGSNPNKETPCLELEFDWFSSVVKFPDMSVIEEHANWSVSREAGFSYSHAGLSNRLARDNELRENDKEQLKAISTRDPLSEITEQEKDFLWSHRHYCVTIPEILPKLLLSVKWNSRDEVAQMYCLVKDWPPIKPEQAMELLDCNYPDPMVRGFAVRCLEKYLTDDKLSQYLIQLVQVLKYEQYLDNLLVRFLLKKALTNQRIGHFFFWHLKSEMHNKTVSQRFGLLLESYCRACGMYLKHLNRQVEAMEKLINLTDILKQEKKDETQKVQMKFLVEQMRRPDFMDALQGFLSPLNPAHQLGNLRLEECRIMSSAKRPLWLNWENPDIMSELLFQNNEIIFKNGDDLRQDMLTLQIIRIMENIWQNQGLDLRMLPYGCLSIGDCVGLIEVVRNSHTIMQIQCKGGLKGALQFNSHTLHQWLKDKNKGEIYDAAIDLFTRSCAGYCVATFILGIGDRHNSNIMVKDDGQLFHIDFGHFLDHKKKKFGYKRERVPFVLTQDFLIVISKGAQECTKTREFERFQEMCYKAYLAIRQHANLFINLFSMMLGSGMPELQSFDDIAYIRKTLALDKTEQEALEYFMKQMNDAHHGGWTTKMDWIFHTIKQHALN

For `NCCC(=O)Nc1cn2nc(-c3cnc(N)c(C(F)(F)F)c3)ccc2n1`, the EC50 at PIK3CA (human) [1] is under 10 µM. The IC50 on PIK3CA (human) [2] was under 1 µM.

In turn, `CC(=O)Nc1nc2ccc(-c3cnc(N)c(C(F)(F)F)c3)c(C)c2s1` showed an EC50 at PIK3CA (human) [1] of under 10 µM. This compound registered an IC50 against PIK3CA (human) [2] of under 1 µM.

`CCOc1nc(-c2ccc3nc(NC(C)=O)cn3n2)cnc1N` yielded an EC50 at PIK3CA (human) [1] of under 10 µM. Besides, the IC50 against PIK3CA (human) [2] was under 1 µM.

In turn, `COc1nc(-c2ccc3nc(NC(C)=O)cn3n2)cnc1N` gave an EC50 at PIK3CA (human) [1] of under 10 µM. The same compound showed an IC50 at PIK3CA (human) [2] of under 1 µM.

In turn, `CC(=O)Nc1cn2c(C)c(-c3cnc(N)c(OCC(F)(F)F)n3)ccc2n1` yielded an EC50 on PIK3CA (human) [1] of under 10 µM. The compound further came in with an IC50 on PIK3CA (human) [2] of under 1 µM.

For the compound `COc1cc(-c2ccc3nc(NC(C)=O)cn3n2)c(C)nc1N`, at PIK3CA (human) [1], the concentration giving a half-maximal response (EC50) is under 25 µM. At PIK3CA (human) [2], this compound displayed an IC50 of under 10 µM.

Regarding `Nc1ncc(-c2ccc3nc(NC(=O)[C@@H]4CCCCN4Cc4ccccc4)cn3c2)cc1C(F)(F)F`, the EC50 at PIK3CA (human) [1] was under 10 µM. This compound also had an IC50 against PIK3CA (human) [2] of under 1 µM.

On to `Nc1ncc(-c2ccc3nc(NC(=O)c4ccc(F)nc4)cn3c2)cc1C(F)(F)F`, for which the EC50 at PIK3CA (human) [1] was under 25 µM. On PIK3CA (human) [2], this compound yielded a half-maximal inhibitory concentration (IC50) of under 1 µM.

Compound `Nc1ncc(-c2ccc3nc(NC(=O)CCO)cn3c2)cc1C(F)(F)F` showed an EC50 on PIK3CA (human) [1] of under 10 µM. Further, the IC50 against PIK3CA (human) [2] is under 1 µM.

`CC(=O)Nc1cn2cc(-c3cnc(N)c(-c4ccc(N5CCOCC5)cc4)c3)ccc2n1` yielded an EC50 at PIK3CA (human) [1] of under 10 µM. Also, the IC50 on PIK3CA (human) [2] was under 10 µM.

Consider `CCN(CC)C(=O)c1cc(-c2ccc3nc(NC(C)=O)cn3c2)cnc1N`, for which the EC50 on PIK3CA (human) [1] was under 10 µM. Further, the IC50 on PIK3CA (human) [2] was under 1 µM.

Consider `CNC(=O)[C@@H]1CCN1C(=O)Nc1cn2cc(-c3cnc(N)c(C(F)(F)F)c3)ccc2n1`, for which, at PIK3CA (human) [1], the EC50 was under 25 µM. At PIK3CA (human) [2], this compound returned an IC50 of under 25 µM.

Regarding `CC(=O)Nc1cn2nc(-c3cnc(N)c(-c4cccc(C(F)(F)F)c4)c3)ccc2n1`, the EC50 on PIK3CA (human) [1] was under 10 µM. Besides, the IC50 against PIK3CA (human) [2] is under 1 µM.

On PIK3CA (human) [1], `CC(=O)Nc1cn2cc(-c3ccc(N)nc3)ccc2n1` had an EC50 of under 10 µM. Moreover, the IC50 at PIK3CA (human) [2] is under 1 µM.

`COc1nc(-c2cc(F)c3nc(NC(C)=O)cn3c2)cnc1N` showed an EC50 on PIK3CA (human) [1] of under 25 µM. This compound also showed an IC50 at PIK3CA (human) [2] of under 1 µM.

`CC(=O)Nc1cn2nc(-c3cnc(N)c(-c4ccccc4Oc4ccccc4)c3)ccc2n1`: on PIK3CA (human) [1], the EC50 was under 10 µM. Further, the IC50 on PIK3CA (human) [2] was under 1 µM.

The compound `CC(=O)Nc1cn2cc(-c3cnc(N)c(Oc4cccc(F)c4)n3)ccc2n1` had an EC50 at PIK3CA (human) [1] of under 1 µM. Moreover, the IC50 against PIK3CA (human) [2] was under 1 µM.

Take `CC(=O)Nc1cn2cc(-c3cnc(N)c(Oc4ccc(N5CCN(C(C)=O)CC5)cc4)n3)ccc2n1`: the EC50 on PIK3CA (human) [1] is under 10 µM. The IC50 against PIK3CA (human) [2] is under 1 µM.

As for `CC(=O)Nc1cn2cc(-c3cnc(N)c(-c4ccccc4F)c3)ccc2n1`, the EC50 on PIK3CA (human) [1] was under 10 µM. The compound further had an IC50 on PIK3CA (human) [2] of under 1 µM.

Turning to `Nc1ncc(-c2ccc3nc(NC(=O)C(F)(F)F)cn3c2)cn1`, the EC50 at PIK3CA (human) [1] was under 25 µM. At PIK3CA (human) [2], this compound displayed an IC50 of under 1 µM.

Turning to `Nc1ncc(-c2ccc3nc(NC(=O)CN4CCCCC4)cn3c2)nc1OCC(F)(F)F`, the EC50 at PIK3CA (human) [1] is under 1 µM. This compound also gave an IC50 at PIK3CA (human) [2] of under 1 µM.

For `CC(C)(C)OC(=O)N1CC(C(=O)Nc2cn3nc(-c4cnc(N)c(C(F)(F)F)c4)ccc3n2)C1`, the EC50 on PIK3CA (human) [1] was under 10 µM. Besides, the IC50 on PIK3CA (human) [2] is under 1 µM.

Consider `CCN(CC)CC#Cc1c(NC(C)=O)nc2ccc(-c3cnc(N)c(C(F)(F)F)c3)cn12`, for which the EC50 at PIK3CA (human) [1] was under 10 µM. In addition, the IC50 at PIK3CA (human) [2] was under 1 µM.

In the case of `CC(=O)N1CCC[C@H]1C(=O)Nc1cn2cc(-c3cnc(N)c(Cl)c3)ccc2n1`, the concentration for a half-maximal effect (EC50) at PIK3CA (human) [1] was under 25 µM. Besides, at PIK3CA (human) [2], the IC50 was under 1 µM.

The compound `CC(=O)Nc1cn2nc(-c3cnc(N)c(C(=O)NCCO)c3)ccc2n1` gave an EC50 at PIK3CA (human) [1] of under 25 µM. This compound also gave a 50% inhibitory concentration (IC50) against PIK3CA (human) [2] of under 1 µM.

Consider `COc1cc(-c2ccc3nc(NC(C)=O)cn3c2C)cnc1N`, for which, at PIK3CA (human) [1], the EC50 was under 25 µM. The same compound came in with a concentration for half-maximal inhibition (IC50) against PIK3CA (human) [2] of under 1 µM.

As for `CC(C)(C)OC(=O)N1CCC[C@H]1C(=O)Nc1cn2nc(-c3cnc(N)c(C(F)(F)F)c3)ccc2n1`, the EC50 at PIK3CA (human) [1] was under 25 µM. On PIK3CA (human) [2], the IC50 is under 1 µM.

Turning to `CCN(CC)CCOc1cc(-c2ccc3nc(NC(C)=O)cn3c2)cnc1N`, the EC50 on PIK3CA (human) [1] was under 25 µM. In addition, at PIK3CA (human) [2], the IC50 was under 10 µM.

`CC(=O)Nc1cn2cc(-c3cnc(N)c(OC4CN(C(=O)c5ccccc5)C4)n3)ccc2n1` showed a concentration giving a half-maximal response (EC50) on PIK3CA (human) [1] of under 10 µM. Besides, the IC50 at PIK3CA (human) [2] was under 1 µM.

Regarding `CC(=O)Nc1nc2ccc(-c3cnc(N)c(C(F)(F)F)c3)cn2c1Cl`, the EC50 at PIK3CA (human) [1] was under 10 µM. In addition, the IC50 on PIK3CA (human) [2] was under 1 µM.

In turn, `CC(=O)Nc1cn2cc(-c3cnc(N)c(-c4ccc(OC(F)(F)F)cc4)c3)ccc2n1` returned a half-maximal effective concentration (EC50) at PIK3CA (human) [1] of under 1 µM. On PIK3CA (human) [2], the IC50 is under 1 µM.

Regarding `CC(=O)Nc1nc2ccc(-c3cnc(N)c(C(F)(F)F)c3)cn2c1C#N`, the EC50 at PIK3CA (human) [1] was under 1 µM. The compound also gave a half-maximal inhibitory concentration (IC50) on PIK3CA (human) [2] of under 1 µM.

As for `CC(=O)Nc1nc2ccc(-c3cnc(N)c(C(F)(F)F)c3)cn2c1Br`, the EC50 at PIK3CA (human) [1] is under 25 µM. Further, the IC50 against PIK3CA (human) [2] is under 1 µM.

Consider `CON=Cc1cc(-c2ccc3nc(NC(C)=O)cn3c2)cnc1N`, for which the EC50 at PIK3CA (human) [1] was under 25 µM. The same compound gave an IC50 against PIK3CA (human) [2] of under 1 µM.

As a reminder, the EC50 is the concentration needed to bring the measured effect to its halfway point. Read a high EC50 as weaker potency. Broadly, the IC50 is the point on the concentration scale where inhibition reaches its midpoint. Read a high IC50 as weaker potency.
